{"source": "patent US20130261077A1", "about": "(priority 2012, published 2013)"}
{"biological_target": "T1, FimH-CRD (Escherichia coli, UniProt P08191)", "T1 construct": "The first 177 amino acids of the FimH protein; thrombin tag (printed as 'fusion protein with thrombin') (cleaved yes); made in house; host or cells: bacteria (pET21b plasmid)", "T1 sequence (P08191 22-177)": "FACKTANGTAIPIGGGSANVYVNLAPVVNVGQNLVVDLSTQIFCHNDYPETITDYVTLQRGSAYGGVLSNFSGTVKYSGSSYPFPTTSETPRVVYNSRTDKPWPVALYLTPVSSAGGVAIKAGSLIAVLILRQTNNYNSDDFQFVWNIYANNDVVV", "assay": "Competitive binding assay by fluorescence polarization, assay 2 (compounds prepared by robotics, plates frozen and thawed)", "method": "The first 177 amino acids of the FimH protein were expressed as a fusion protein with thrombin in a pET21b plasmid in bacteria. This FimH protein sequence contains the carbohydrate recognition domain (CRD) and shall be termed FimH-CRD. Following bacterial expression of the protein, the FimH-CRD protein was purified to homogeneity and the thrombin tag removed by protease cleavage. A competitive binding assay by fluorescence polarization was performed using 5 nM of the Alexa 647 mannoside probe and 60 nM of the FimH-CRD. The samples are assayed in a low volume 384 well microtiter plate in a final volume of 20 μl. The final assay buffer conditions are the following, 50 mM Tris-Cl, ph 7.0, 100 mM NaCl, 1 mM EDTA, 5 mM β-mercaptoethanol, 0.05% BSA and 2.5% DMSO. Two assays are performed for FimH, termed assay 1 or assay 2. The assay conditions are the same for both assays except the following: assay 1 has compounds prepared by manual dilution in a serial dilution factor with 12-point dose response while assay 2 has compounds prepared by a robotics system also through a serial dilution factor (12 point dose response) and initially prepared in duplicate in 384 well-Corning polypropylene round bottom plates. The assay 2 plates have compound which is then frozen and must be thawed prior to use. Initially the Alexa 647 probe and the FimH-CRD are added to the assay buffer and then 0.5 μl of test compound (assay 1 or 2) between 0.4 nM to 75 μM final concentration are added (12 point titration with 3-fold serial dilution). Control wells for the Alexa 647 probe are prepared with the same conditions except for the addition of the FimH-CRD protein. Plates are then incubated for 5 hrs at room temperature in the dark and under humid conditions to prevent drying. Plates are read using the SpectraMax Paradigm multi-mode plate reader and the appropriate fluorescent polarization detection cartridge (Alexa-647).\nAlexa 647 mannoside probe is prepared using the similar procedure reported for FAM mannoside (Han, Z. et. al., 2010, J. Med. Chem., 53, 4779) and is described in the scheme below.\nTo a blue colored stirred solution of (2S,3S,4S,5S,6R)-2-(4-aminobutoxy)-6-(hydroxymethyl)tetrahydropyran-3,4,5-triol (2.21 mg, 0.009 mmol) and the (2E)-2-[(2E,4E)-5-[3,3-dimethyl-5-sulfonato-1-(3-sulfonatopropyl)indol-1-ium-2-yl]penta-2,4-dienylidene]-3-[6-(2,5-dioxopyrrolidin-1-yl)oxy-6-oxo-hexyl]-3-methyl-1-(3-sulfonatopropyl)indoline-5-sulfonate (Potassium Ion (3)) (4.9 mg, 0.0044 mmol) in DMF (44 μL) is added Et3N (5.4 mg, 7.0 μL, 0.053 mmol) at RT. The solution is stirred at room temperature over night, concentrated, dissolved in water and purified on 12 g C-18 silica gel cartridge on Isolera system using acetonitrile in water (0 to 40%, 10 CV) and followed by lyophilization to afford Alexa 647 mannoside probe (3.3 mg, 34%) as deep blue solid.\nThe Kd values of the compounds are determined from dose response curves using twelve concentrations per compound in duplicate. Curves are fitted to data points using Fluorescence Polarization competitive displacement analysis, and Kds are interpolated from the resulting curves using GraphPad Prism software, version […] (GraphPad software Inc., San Diego, Calif., USA).", "units": {"Kd": "nM"}}
{"smiles": "OC[C@H]1OC(c2cccc(OCC3CCCCC3)c2)[C@@H](O)[C@@H](O)[C@@H]1O", "note": "(stereo partly drawn) [Compound 215]", "Kd": "13.1 ± 3.9"}
{"smiles": "CC(C)(C)OC(=O)NCc1nnc(-c2ccc(-c3cccc([C@H]4O[C@H](CO)[C@@H](O)[C@H](O)[C@@H]4O)c3)cc2)o1", "note": "[Compound 115, tert-Butyl N-[[5-[4-[3-[(2R,3S,4R,5S,6R)-3,4,5-trihydroxy-6-(hydroxymethyl)tetrahydropyran-2-yl]phenyl]phenyl]-1,3,4-oxadiazol-2-yl]methyl]carbamate]", "Kd": "24.2 ± 2.9"}
{"smiles": "Cc1c(-c2ccc(S(C)(=O)=O)cc2)cccc1[C@H]1O[C@H](CO)[C@@H](O)[C@H](O)[C@@H]1O", "note": "[Compound 109, (2R,3S,4R,5S,6R)-2-(Hydroxymethyl)-6-[2-methyl-3-(4-methylsulfonylphenyl)phenyl]tetrahydropyran-3,4,5-triol]", "Kd": "14.4 ± 6.2"}
{"smiles": "OC[C@H]1O[C@H](c2ccc(-c3cn(Cc4ccccc4)nn3)cc2)[C@@H](O)[C@@H](O)[C@@H]1O", "note": "[Compound 81, (2R,3S,4R,5S,6R)-2-[4-(1-Benzyltriazol-4-yl)phenyl]-6-(hydroxymethyl)tetrahydropyran-3,4,5-triol]", "Kd": "15.2 ± 4.3"}
{"smiles": "COc1cc(-c2nnc(C)o2)ccc1-c1cccc([C@H]2O[C@H](CO)[C@@H](O)[C@H](O)[C@@H]2O)c1", "note": "[Compound 128, (2R,3S,4R,5S,6R)-2-(hydroxymethyl)-6-[3-[2-methoxy-4-(5-methyl-1,3,4-oxadiazol-2-yl)phenyl]phenyl]tetrahydropyran-3,4,5-triol]", "Kd": "74.7 ± 60.4"}
{"smiles": "OC[C@H]1OC(c2cccc(OCc3ccc(-n4cncn4)cc3)c2)[C@@H](O)[C@@H](O)[C@@H]1O", "note": "(stereo partly drawn) [Compound 213]", "Kd": "9.3 ± 0.5"}
{"smiles": "OC[C@H]1O[C@H](c2cccc(CCCc3ccccc3)c2)[C@@H](O)[C@@H](O)[C@@H]1O", "note": "[Compound 99]", "Kd": "26.4 ± 1.1"}
{"smiles": "COC(=O)c1ccc(OCc2cccc([C@H]3O[C@H](CO)[C@@H](O)[C@H](O)[C@@H]3O)c2)cc1", "note": "[Compound 261, methyl 4-[[3-[(2R,3S,4R,5S,6R)-3,4,5-trihydroxy-6-(hydroxymethyl)tetrahydropyran-2-yl]phenyl]methoxy]benzoate]", "Kd": "32.2 ± 8.1"}
{"smiles": "COC(=O)c1ccc(COc2cccc(C3O[C@H](CO)[C@@H](O)[C@H](O)[C@@H]3O)c2)cc1", "note": "(stereo partly drawn) [Compound 211]", "Kd": "8 ± 2.4"}
{"smiles": "OC[C@H]1O[C@H](c2cccc(-c3ccc4[nH]c(C(F)(F)F)nc4c3)c2)[C@@H](O)[C@@H](O)[C@@H]1O", "note": "[Compound 148, (2R,3S,4R,5S,6R)-2-(Hydroxymethyl)-6-[3-[2-(trifluoromethyl)-1H-benzimidazol-5-yl]phenyl]tetrahydropyran-3,4,5-triol]", "Kd": "25.1 ± 12"}
{"smiles": "Cn1cnc2cc(-c3cccc([C@H]4O[C@H](CO)[C@@H](O)[C@H](O)[C@@H]4O)c3)ccc21", "note": "[Compound 179, (2R,3S,4R,5S,6R)-2-(hydroxymethyl)-6-(3-(1-methyl-1H-benzo[d]imidazol-5-yl)phenyl)tetrahydro-2H-pyran-3,4,5-triol]", "Kd": "20.4 ± 0.8"}
{"smiles": "OC[C@H]1O[C@H](c2cccc(C/C=C/c3ccccc3)c2)[C@@H](O)[C@@H](O)[C@@H]1O", "note": "[Compound 96, (2R,3S,4R,5S,6R)-2-[3-[(E)-Cinnamyl]phenyl]-6-(hydroxymethyl)tetrahydropyran-3,4,5-triol]", "Kd": "29 ± 2.3"}
{"smiles": "CC(=O)c1ccc(-c2cccc([C@H]3O[C@H](CO)[C@@H](O)[C@H](O)[C@@H]3O)c2)cc1", "note": "[Compound 184, 1-(3′-((2R,3S,4R,5S,6R)-3,4,5-trihydroxy-6-(hydroxymethyl)tetrahydro-2H-pyran-2-yl)-[1,1′-biphenyl]-4-yl)ethanone]", "Kd": "18.2 ± 8.4"}
{"smiles": "OC[C@H]1OC(c2ccc(OCC3CCOCC3)cc2)[C@@H](O)[C@@H](O)[C@@H]1O", "note": "(stereo partly drawn) [Compound 236]", "Kd": "11.5 ± 4.6"}
{"smiles": "Cc1nn(-c2ccccc2)nc1COc1cccc(C2O[C@H](CO)[C@@H](O)[C@H](O)[C@@H]2O)c1", "note": "(stereo partly drawn) [Compound 221]", "Kd": "8.2 ± 0.5"}
{"smiles": "CCC#CCOc1ccc(C2O[C@H](CO)[C@@H](O)[C@H](O)[C@@H]2O)cc1", "note": "(stereo partly drawn) [Compound 229]", "Kd": "33.1 ± 4"}
{"smiles": "CC(C)(C)c1ccc(COc2ccc(C3O[C@H](CO)[C@@H](O)[C@H](O)[C@@H]3O)cc2)cc1", "note": "(stereo partly drawn) [Compound 241]", "Kd": "10.2 ± 0.8"}
{"smiles": "Nc1ccc(Oc2cccc([C@H]3O[C@H](CO)[C@@H](O)[C@H](O)[C@@H]3O)c2)cn1", "note": "[Compound 258, (2R,3S,4R,5S,6R)-2-[3-[(6-amino-3-pyridyl)oxy]phenyl]-6-(hydroxymethyl)tetrahydropyran-3,4,5-triol]", "Kd": "31.9 ± 6.3"}
{"smiles": "OC[C@H]1OC(c2ccc(OCc3ccccc3)cc2)[C@@H](O)[C@@H](O)[C@@H]1O", "note": "(stereo partly drawn) [Compound 245]", "Kd": "22.8 ± 2.4"}
{"smiles": "COC(=O)c1ccc(Oc2cc([C@H]3O[C@H](CO)[C@@H](O)[C@H](O)[C@@H]3O)ccc2OC)cc1", "note": "[Compound 189, Methyl-4-[2-methoxy-5-[(2R,3S,4R,5S,6R)-3,4,5-trihydroxy-6-(hydroxymethyl)tetrahydropyran-2-yl]phenoxy]benzoate]", "Kd": "8.1 ± 2.7"}
{"smiles": "CNC(=O)c1cccc2[nH]c(-c3cccc([C@H]4O[C@H](CO)[C@@H](O)[C@H](O)[C@@H]4O)c3)nc12", "note": "[Compound 173, N-methyl-2-(3-((2R,3S,4R,5S,6R)-3,4,5-trihydroxy-6-(hydroxymethyl)tetrahydro-2H-pyran-2-yl)phenyl)-1H-benzo[d]imidazole-4-carboxamide]", "Kd": "54.6 ± 23"}
{"smiles": "CNC(=O)c1ccc(Oc2cc([C@H]3O[C@H](CO)[C@@H](O)[C@H](O)[C@@H]3O)ccc2F)cc1", "note": "[Compound 197, 4-[2-fluoro-5-[(2R,3S,4R,5S,6R)-3,4,5-trihydroxy-6-(hydroxymethyl)tetrahydropyran-2-yl]phenoxy]-N-methyl-benzamide]", "Kd": "11.7 ± 2.8"}
{"smiles": "CC1(COc2cccc(C3O[C@H](CO)[C@@H](O)[C@H](O)[C@@H]3O)c2)COC1", "note": "(stereo partly drawn) [Compound 214]", "Kd": "12 ± 7.9"}
{"smiles": "OC[C@H]1O[C@H](c2cccc(/C=C/c3ccccc3)c2)[C@@H](O)[C@@H](O)[C@@H]1O", "note": "[Compound 140, (2R,3S,4R,5S,6R)-2-(hydroxymethyl)-6-[3-[(E)-styryl]phenyl]tetrahydropyran-3,4,5-triol]", "Kd": "15.3 ± 3.5"}
{"smiles": "O=C(NCCCOc1cccc(C2O[C@H](CO)[C@@H](O)[C@H](O)[C@@H]2O)c1)c1ccccc1", "note": "(stereo partly drawn) [Compound 219]", "Kd": "16.3 ± 5.1"}
{"smiles": "CS(=O)(=O)c1ccc2[nH]c(-c3cccc([C@H]4O[C@H](CO)[C@@H](O)[C@H](O)[C@@H]4O)c3)nc2c1", "note": "[Compound 169]", "Kd": "25.7 ± 0.4"}
{"smiles": "OC[C@H]1O[C@H](c2cccc(Oc3ccncc3)c2)[C@@H](O)[C@@H](O)[C@@H]1O", "note": "[Compound 252, (2R,3S,4R,5S,6R)-2-(hydroxymethyl)-6-[3-(4-pyridyloxy)phenyl]tetrahydropyran-3,4,5-triol]", "Kd": "13.2 ± 2.2"}
{"smiles": "COC(=O)c1cccc(COc2ccc(C3O[C@H](CO)[C@@H](O)[C@H](O)[C@@H]3O)cc2)c1", "note": "(stereo partly drawn) [Compound 246]", "Kd": "23.6 ± 5.5"}
{"smiles": "CNC(=O)c1ccc(COc2ccc(C3O[C@H](CO)[C@@H](O)[C@H](O)[C@@H]3O)cc2)cc1", "note": "(stereo partly drawn) [Compound 249]", "Kd": "19.6 ± 10.2"}
{"smiles": "CNC(=O)c1cccc(Oc2ccc(F)c([C@H]3O[C@H](CO)[C@@H](O)[C@H](O)[C@@H]3O)c2)c1", "note": "[Compound 202, 3-[4-fluoro-3-[(2R,3S,4R,5S,6R)-3,4,5-trihydroxy-6-(hydroxymethyl)tetrahydropyran-2-yl]phenoxy]-N-methyl-benzamide]", "Kd": "19.2 ± 3.8"}
{"smiles": "OC[C@H]1O[C@H](c2ccc3cc(-c4cc(Cl)cc(Cl)c4)ccc3c2)[C@@H](O)[C@@H](O)[C@@H]1O", "note": "[Compound 155, (2R,3S,4R,5S,6R)-2-[6-(3,5-dichlorophenyl)-2-naphthyl]-6-(hydroxymethyl)tetrahydropyran-3,4,5-triol]", "Kd": "71.7 ± 2"}
{"smiles": "CNC(=O)c1ccc(Oc2ccc(OC(F)(F)F)c([C@H]3O[C@H](CO)[C@@H](O)[C@H](O)[C@@H]3O)c2)cc1", "note": "[Compound 195, N-methyl-4-[4-(trifluoromethoxy)-3-[(2R,3S,4R,5S,6R)-3,4,5-trihydroxy-6-(hydroxymethyl)tetrahydropyran-2-yl]phenoxy]benzamide]", "Kd": "178 ± 60.9"}
{"smiles": "N#CCCCOc1ccc(C2O[C@H](CO)[C@@H](O)[C@H](O)[C@@H]2O)cc1", "note": "(stereo partly drawn) [Compound 230]", "Kd": "13.9 ± 3.6"}
